Experimental findings from PubChem BioAssay (NCI) are described below.

Where “and” joins values, the source holds several entries; their conditions need not be identical. Identical values can stand only once.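 How tested: cells in 96-well plates exposed to compound for 48 hours at five concentrations. The concentration for 50% growth inhibition is given as GI50. TGI: total growth inhibition.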 A value given as a limit tells only on which side of the number the result lay.

Some test systems named below: OVCAR-4 ovarian; CCRF-CEM leukemia; DU-145 prostate; SNB-75 CNS; OVCAR-5 ovarian; UACC-257 melanoma; MALME-3M melanoma; LOX IMVI melanoma; U251 CNS; SNB-19 CNS.
What all share (test): inhibition of tumour cell growth, NCI panel, 48 h

On to `Oc1cc(Br)cc2cc(Cl)cnc12`, for which the TGI is 12.8 µM in the test with OVCAR-4 ovarian; 7.23 µM in the test on CCRF-CEM leukemia; above 55.5 µM in the test with DU-145 prostate; above 90.3 µM in the test with SNB-75 CNS; above 100 µM in the test on OVCAR-5 ovarian; above 100 µM in the test with UACC-257 melanoma. The TGI in the test on MALME-3M melanoma was 30 µM; in the test with LOX IMVI melanoma, above 26.5 µM; with U251 CNS, above 82.8 µM; in the test on SNB-19 CNS, above 100 µM.
Turning to `O=c1ccc2ccc(O)cc2o1`, the TGI with OVCAR-4 ovarian, in the test with CCRF-CEM leukemia, in the test with DU-145 prostate, in the test on SNB-75 CNS, in the test on OVCAR-5 ovarian and in the test with UACC-257 melanoma was above 100 µM throughout. The TGI in the test with MALME-3M melanoma, with LOX IMVI melanoma, in the test with U251 CNS and in the test on SNB-19 CNS was above 100 µM in each case.
As for `C=C(C(=O)O[C@H]1C(=O)C2=C(C)CCC3C(=C)C(=O)O[C@@H]3C2[C@]1(C)O)C1CC[C@]2(C)CCCC(=C)[C@H]2C1` (some centres not stated), the GI50 is 6.69 µM with OVCAR-4 ovarian; 5.37 µM in the test with DU-145 prostate; 2.42 µM in the test with SNB-75 CNS; 9.64 µM in the test with OVCAR-5 ovarian; 15.5 µM with MALME-3M melanoma; 5.26 µM in the test with LOX IMVI melanoma. Also, in the test on U251 CNS, the GI50 is 0.117 µM. For the same molecule, the TGI in the test with OVCAR-4 ovarian is 13.4 µM and 11.3 µM; in the test on CCRF-CEM leukemia, 0.106 µM; in the test with DU-145 prostate, 11.3 µM and 10.3 µM; with SNB-75 CNS it was 8.05 µM and 6.71 µM; in the test on OVCAR-5 ovarian it was 25 µM and 41 µM; in the test with UACC-257 melanoma it was 14 µM and 12 µM. Moreover, the TGI was 16.3 µM and 31.1 µM in the test on MALME-3M melanoma; 11.5 µM and 15.7 µM in the test with LOX IMVI melanoma; 7.04 µM and 9.95 µM in the test with U251 CNS; 26.6 µM in the test on SNB-19 CNS.
As for `Brc1ccc2c(-c3csc(-c4c[nH]c5ccccc45)n3)c[nH]c2c1`, the TGI is 39.8 µM with OVCAR-4 ovarian; 38.1 µM in the test on CCRF-CEM leukemia; 32.9 µM in the test on DU-145 prostate; 46.4 µM in the test with SNB-75 CNS; 32.7 µM in the test on OVCAR-5 ovarian; 50.7 µM in the test on UACC-257 melanoma. Moreover, the TGI with MALME-3M melanoma turned out to be 31 µM; in the test on LOX IMVI melanoma it was 29.6 µM; with U251 CNS, 31.7 µM; in the test with SNB-19 CNS, 31.7 µM.
With `[N-]=[N+]=C(C(=O)N1CCCC1=O)S(=O)(=O)c1ccccc1`, the TGI in the test on CCRF-CEM leukemia, in the test on DU-145 prostate, with SNB-75 CNS, with UACC-257 melanoma, in the test on MALME-3M melanoma and with LOX IMVI melanoma was above 100 µM throughout. In addition, the TGI in the test with U251 CNS and with SNB-19 CNS was above 100 µM throughout.
On to `CC1=C(C)C(=O)C(C2=CC(=O)C=CC2=O)=C(C2=CC(=O)C=CC2=O)C1=O`, for which the TGI was 51.3 µM in the test on OVCAR-4 ovarian; above 100 µM in the test with CCRF-CEM leukemia; above 100 µM with DU-145 prostate; above 100 µM with SNB-75 CNS; above 100 µM in the test on OVCAR-5 ovarian; above 100 µM in the test on UACC-257 melanoma. Also, the TGI in the test on MALME-3M melanoma was above 100 µM; with LOX IMVI melanoma, above 96.1 µM; in the test on U251 CNS, above 77.5 µM; in the test on SNB-19 CNS it was above 100 µM.
As for `CC1(C)CCc2c(c(N=Nc3ccc(F)cc3)c3ccccc3c2O)O1`, the TGI with OVCAR-4 ovarian is above 100 µM; in the test with CCRF-CEM leukemia, 41 µM; with DU-145 prostate it was 35.8 µM; with SNB-75 CNS, 48.6 µM; in the test on OVCAR-5 ovarian, above 100 µM; in the test with UACC-257 melanoma, 41.1 µM. The TGI in the test with MALME-3M melanoma is 68.5 µM; in the test on LOX IMVI melanoma it was 47.3 µM; in the test with U251 CNS, above 100 µM; with SNB-19 CNS it was above 100 µM.
As to `CC(=O)OC1COC(Nc2nc(N)n(C)c(=O)c2N=O)C(OC(C)=O)C1OC(C)=O` (configuration not stated), the TGI in the test on OVCAR-4 ovarian, with CCRF-CEM leukemia, in the test on DU-145 prostate, with SNB-75 CNS, in the test on OVCAR-5 ovarian and in the test with UACC-257 melanoma was above 10 µM in each case. Moreover, the TGI in the test with MALME-3M melanoma, with LOX IMVI melanoma, in the test on U251 CNS and in the test on SNB-19 CNS was above 10 µM each time.
For `CCOC(=O)C(NC(=O)OC(C)(C)C)C(=O)OCC`, the TGI with OVCAR-4 ovarian, in the test with CCRF-CEM leukemia, with DU-145 prostate, in the test with SNB-75 CNS, with OVCAR-5 ovarian and with UACC-257 melanoma was above 100 µM in each case. Further, the TGI in the test on U251 CNS and in the test with SNB-19 CNS was above 100 µM each time.
Regarding `COc1cc(Br)c(CC2C3=C(CCN2C(=O)C2CCC2)CC(=O)CC3)cc1O` (configuration not stated), the TGI in the test with CCRF-CEM leukemia is 87.6 µM; in the test on DU-145 prostate it was above 100 µM; in the test on SNB-75 CNS it was 71.1 µM; with OVCAR-5 ovarian, above 100 µM; with UACC-257 melanoma it was above 100 µM; with MALME-3M melanoma, 92.7 µM. In addition, the TGI with LOX IMVI melanoma, in the test on U251 CNS and in the test with SNB-19 CNS was above 100 µM in each case.
Take `CN1CCN(C2=CC(=O)c3c(O)ccc(O)c3C2=O)CC1`: the TGI with OVCAR-4 ovarian is 3.46 µM; in the test on CCRF-CEM leukemia, 3.03 µM; in the test on DU-145 prostate, 3.13 µM; in the test with SNB-75 CNS, 2.97 µM; in the test on UACC-257 melanoma, 0.467 µM; in the test on MALME-3M melanoma it was 0.592 µM. The TGI in the test with LOX IMVI melanoma was found to be 1.79 µM; in the test with U251 CNS, 2.97 µM; in the test with SNB-19 CNS it was 3.05 µM.
As to `Oc1ccc(Cl)cc1C1=NC(/N=C\c2ccccc2)=NC(c2ccccc2)C1` (configuration not stated), the TGI was above 100 µM in the test with CCRF-CEM leukemia; above 100 µM in the test with DU-145 prostate; 64.7 µM with SNB-75 CNS; above 100 µM in the test with OVCAR-5 ovarian; above 100 µM with UACC-257 melanoma; above 100 µM in the test with U251 CNS.
Consider `CC(=O)Nc1ccccc1NC1CC(C)N(c2ccccc2)N1C(C)=O` (configuration not stated), for which the TGI with OVCAR-4 ovarian, in the test on CCRF-CEM leukemia, with DU-145 prostate, in the test with SNB-75 CNS, in the test with UACC-257 melanoma and in the test with MALME-3M melanoma was above 10 µM each time.
For the molecule `COC(=O)C1=C(C(=O)OC)SC2(S1)C(C(=O)OC)=C(C(=O)OC)Sc1c2ssc1=NC(C)(C)C`, the TGI in the test on OVCAR-4 ovarian stood at 3.32 µM; in the test with DU-145 prostate it was 2.17 µM; with SNB-75 CNS it was 2.92 µM; in the test with OVCAR-5 ovarian it was 3.68 µM; in the test with UACC-257 melanoma, 3.05 µM; with MALME-3M melanoma, 5.09 µM. The TGI with LOX IMVI melanoma amounted to 2.4 µM; in the test on U251 CNS, 3.54 µM; in the test on SNB-19 CNS it was 9.77 µM.
